# “And” between values parts separate entries of the source, which are not always exact repeats. Equal values may be shown once. The source made the active and inactive calls.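 How the source made its calls: active means fitted curve falls past -35% activity change at a dose below twice the highest valid tested dose; inconclusive means no clear call, values can overlap the other calls; inactive means the rest, including activity opposite to the expected decrease.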
# System: A673 viability, CellTiter-Glo ATP luminescence, 72 h
# Experiment: killing of EWS/Fli1-dependent A673 cells, confirmation, cell-based, luminescence, retest at dose, dry powder (AID 743478)
# Conditions: not given
row,Structure (SMILES),AC35
1,COc1cccc(S(=O)(=O)N2CC[C@@H]3[C@@H](CO)Nc4ccc(-c5ccc(C#N)cc5)cc4[C@@H]32)c1,21400 nM
2,N#CC1=C(N)Oc2cc(N)ccc2C1c1cccc(Br)c1 (configuration not stated),104 nM
3,C[C@@]1(C(=O)Nc2ccc(F)nc2)CCCN1c1nc(Nc2cc(C3CC3)[nH]n2)c2cccn2n1,296 nM
4,Clc1ccccc1-c1nnc2n1N=C(c1ccc3c(c1)OCO3)CS2,408 nM
5,Cc1ccc([N+](=O)[O-])cc1S(=O)(=O)N(C)C,3970 nM
6,COc1ccc(C2=Nn3c(nnc3-c3ccccc3Cl)SC2)cc1OC,392 nM
7,COc1ccc(-c2ccc3c(c2)[C@H]2[C@H](CCN2S(=O)(=O)c2ccc(OC)cc2)[C@@H](CO)N3)cc1,3950 nM
8,Cc1ccc(S(=O)(=O)N2CC[C@@H]3[C@@H](CO)Nc4ccc(-c5ccc(C#N)cc5)cc4[C@@H]32)cc1,19800 nM
9,COc1ccc(OC)c(-c2nnc3n2N=C(c2ccc(OC)c(OC)c2)CS3)c1,< 23.5 nM and 16.3 nM
10,CC(C)N1c2ccccc2C(c2ccc(F)cc2)C1/C=C/C(O)CC(O)CC(=O)O (configuration not stated),1420 nM
11,Cc1ccccc1C1C(C#N)=C(N)Oc2cc(N)ccc21 (configuration not stated),13100 nM
12,CN1CCN(CCOc2cc(OC3CCOCC3)c3c(Nc4c(Cl)ccc5c4OCO5)ncnc3c2)CC1,22000 nM
13,N#CC1=C(N)Oc2cc(N)ccc2C12C(=O)Nc1ccc(Br)cc12 (configuration not stated),18900 nM
14,N#CC1=C(N)Oc2cc3c(cc2C1c1cccc(Br)c1)OCO3 (configuration not stated),28.8 nM
15,CCc1c2c(nc3ccc(O)cc13)-c1cc3c(c(=O)n1C2)COC(=O)C3(O)CC (configuration not stated),2 nM
16,N#CC1=C(N)Oc2cc(O)ccc2C1c1cccc(Br)c1 (configuration not stated),1840 nM
17,Nc1ncnc2c1c(-c1cccc(OCc3ccccc3)c1)cn2C1CC(CN2CCCC2)C1 (configuration not stated),3760 nM
18,CC[C@@]1(O)C(=O)OCc2c1cc1n(c2=O)Cc2cc3c(CN(C)C)c(O)ccc3nc2-1,16.6 nM
19,N#CC1=C(N)Oc2ccc3ccccc3c2C1c1cccc(F)c1 (configuration not stated),526 nM
20,COc1cc(C2C(C#N)=C(N)Oc3cc(N(C)C)ccc32)cc2c1OCO2 (configuration not stated),82.3 nM
21,CN(C)c1ccc2c(c1)OC(N)=C(C#N)C2c1cccc(F)c1 (configuration not stated),17.7 nM

row,Structure (SMILES),AC35
1,COc1ccc(-c2ccc3c(c2)[C@H]2[C@H](CCN2S(=O)(=O)c2ccc(OC)cc2)[C@@H](CO)N3C)cc1,3420 nM
2,Cn1cc(-c2ccncc2)c(-c2ccc(OCc3ccc4ccccc4n3)cc2)n1,21300 nM
3,COc1ccc(C2=Nn3c(nnc3-c3ccccc3F)SC2)cc1OC,3180 nM
4,CN1c2ccc(-c3ccc(C#N)cc3)cc2[C@H]2[C@H](CCN2S(=O)(=O)c2cccc(F)c2)[C@H]1CO,3650 nM
5,CC1(C)CC(c2nc(-c3ccc4ccc(-c5ccccc5)nc4c3)c3c(N)nccn23)C1,2020 nM
6,O=C(Cc1ccc(-c2ccc(OCCN3CCOCC3)cc2)cn1)NCc1ccccc1,< 23.5 nM
7,COc1ccc(S(=O)(=O)N(C(C)=O)c2ccc(OC(C)=O)c3ccccc23)cc1[N+](=O)[O-],460 nM
8,Cc1nc(Nc2ncc(C(=O)Nc3c(C)cccc3Cl)s2)cc(N2CCN(CCO)CC2)n1,5450 nM
9,COc1cccc2c1C(=O)c1c(O)c3c(c(O)c1C2=O)C[C@@](O)(C(=O)CO)C[C@@H]3O[C@H]1C[C@H](N)[C@H](O)[C@H](C)O1,< 50 nM
10,N#CC1=C(N)Oc2cc(OC(=O)c3ccccc3)ccc2C1c1cccc(Br)c1 (configuration not stated),2460 nM
11,CCCCc1ccc2nc(NC(=O)OC)[nH]c2c1,< 50 nM
12,COc1ccc(C(=O)CC2(O)C(=O)Nc3c(Cl)ccc(Cl)c32)cc1 (configuration not stated),2250 nM
13,N#CC1=C(N)Oc2cc(N)ccc2C1c1ccccc1 (configuration not stated),12200 nM
14,N#CC1=C(N)Oc2cc(N)ccc2C1c1cccc(F)c1 (configuration not stated),907 nM
15,C=C([C@@H](O)[C@@H](C)O)[C@@H](OC)[C@]1(C)Cc2cc3cc(O[C@H]4CC(OC5CC(O)C(O)C(C)O5)C(O)C(C)O4)cc(O)c3c(O)c2C(=O)[C@H]1OC1CC(OC2CC(OC3CC(C)(O)C(O)C(C)O3)C(O)C(C)O2)C(O)C(C)O1 (some centres not stated),36.8 nM
16,COc1cccc(C2C(C#N)=C(N)Oc3cc(N)ccc32)c1 (configuration not stated),444 nM
17,COc1ccc(-c2cc(NC=O)c3ncc(-c4ccc(OC)c(OC)c4)n3c2)cc1,545 nM
18,COc1ccccc1-c1nnc2n1N=C(c1ccc(O)c(O)c1)CS2,807 nM
19,CC(C)(O)CCc1ccc(O)c2c(=O)c3c(O)c4c(cc3oc12)O[C@H]1OC=C[C@@]41O,32.6 nM
20,COc1ccc(C2=Nn3c(nnc3-c3ccccc3OC)SC2)cc1OC,55.6 nM
21,Cc1cc(Nc2cc(N3CCN(C)CC3)nc(Sc3ccc(NC(=O)C4CC4)cc3)n2)n[nH]1,271 nM

row,Structure (SMILES),AC35
1,Cc1cccc(C2C(C#N)=C(N)Oc3cc(N)ccc32)c1 (configuration not stated),486 nM
2,O=C(c1cc(Cc2n[nH]c(=O)c3ccccc23)ccc1F)N1CCN(C(=O)C2CC2)CC1,3970 nM
3,CCOC(=O)CCNc1cc(N2CCc3ccccc3CC2)nc(-c2ccccn2)n1,14800 nM
4,N#CC1=C(N)Oc2cc(N)ccc2C1c1ccc2ccccc2c1 (configuration not stated),11900 nM
5,COc1ccc(S(=O)(=O)N2CC[C@@H]3[C@@H](CO)Nc4ccc(-c5cccc(C#N)c5)cc4[C@@H]32)cc1,3950 nM
6,COc1ccc(S(=O)(=O)N2CC[C@@H]3[C@@H](CO)Nc4ccc(-c5ccc(C#N)cc5)cc4[C@@H]32)cc1,4030 nM
7,COc1ccc(S(=O)(=O)N2CC[C@@H]3[C@@H](CO)N(C)c4ccc(-c5ccc(F)cc5)cc4[C@@H]32)cc1,3080 nM
8,N#CC1=C(N)Oc2cc(N)ccc2C1c1ccccc1Cl (configuration not stated),12300 nM
9,N#Cc1ccc(-c2ccc3c(c2)[C@H]2[C@H](CCN2S(=O)(=O)c2cccc(F)c2)[C@@H](CO)N3)cc1,5430 nM
10,CCC(C)C(=O)OC1CC(C)C=C2C=CC(C)C(CCC(O)CC(O)CC(=O)O)C21 (configuration not stated),25200 nM
11,COc1cc([C@@H]2c3cc4c(cc3[C@@H](O[C@@H]3O[C@@H]5CO[C@@H](C)O[C@H]5[C@H](O)[C@H]3O)[C@H]3COC(=O)[C@H]23)OCO4)cc(OC)c1O,751 nM
12,COc1ccccc1-c1nnc2n1N=C(c1ccc3c(c1)OCO3)CS2,16.4 nM
13,CN(C(=O)CCCOc1ccc2[nH]c(=O)ccc2c1)C1CCCCC1,20700 nM
14,Cc1c([C@H](C(Cl)Cl)[C@H](O)[C@H]2C[C@H](C)C(=O)O2)ccc2c1C(=O)[C@H]1[C@H]2C[C@@H](Br)[C@@]23O[C@@H](CO[C@H]2O)C[C@]13C,< 50 nM
15,CC[C@]1(O)CC2CN(CCc3c([nH]c4ccccc34)[C@@](C(=O)OC)(c3cc4c(cc3OC)N(C=O)[C@H]3[C@@](O)(C(=O)OC)[C@H](OC(C)=O)[C@]5(CC)C=CCN6CC[C@]43[C@@H]65)C2)C1 (some centres not stated),< 1.5 nM
16,COc1ccccc1S(=O)(=O)N1CC[C@@H]2[C@@H](CO)Nc3ccc(-c4ccc(C#N)cc4)cc3[C@@H]21,11600 nM
17,COc1ccc(S(=O)(=O)N2CC[C@@H]3[C@H](CO)Nc4ccc(-c5ccc(C#N)cc5)cc4[C@@H]32)cc1,6540 nM
18,Nc1ccn([C@@H]2O[C@H](CO)[C@H](O)C2O)c(=O)n1 (some centres not stated),66 nM
19,N#Cc1ccc(-c2ccc3c(c2)[C@H]2[C@H](CCN2S(=O)(=O)c2ccccc2F)[C@@H](CO)N3)cc1,12500 nM

# System: not listed separately
# Experiment: as above
# Conditions: A673 viability, CellTiter-Glo ATP luminescence, 72 h; at 1.6 µM (top of the series)
row,Structure (SMILES),"activity change, negative = cytotoxicity"
1,CCN(CCO)CCCOc1ccc2c(Nc3cc(CC(=O)Nc4cccc(F)c4)[nH]n3)ncnc2c1,-35.3% (inactive)

# Same assay, conditions: A673 viability, CellTiter-Glo ATP luminescence, 72 h; at 6 µM (top of the series)
row,Structure (SMILES),"activity change, negative = cytotoxicity"
1,Clc1ccc(-c2cnc3ccc(-c4ccccc4)cn23)cc1,1.33% (inactive)

# Same assay, conditions: A673 viability, CellTiter-Glo ATP luminescence, 72 h; at 12 µM (top of the series)
row,Structure (SMILES),"activity change, negative = cytotoxicity"
1,COc1ccc(NC(=O)Nc2ccc3c(c2)C(=O)N([C@@H](C)CO)C[C@H](C)[C@H](CN(C)Cc2ccc4c(c2)OCO4)O3)cc1,-32.3% (inactive)

# Same assay, conditions: A673 viability, CellTiter-Glo ATP luminescence, 72 h; at 26 µM (top of the series)
row,Structure (SMILES),"activity change, negative = cytotoxicity"
1,COc1ccc(-c2cc(NC(C)=O)c3ncc(-c4ccc(OC)c(OC)c4)n3c2)cc1,-6.5% (inactive)
2,COc1ccc(CNc2nc(N3CCC[C@H]3CO)ncc2C(=O)NCc2ncccn2)cc1Cl,0.28% (inactive)
3,COc1ccc(C2=Nn3c(nnc3-c3ccccc3)SC2)cc1OC,-5.89% (inactive)
4,C[C@]1(c2nc3c(C(N)=O)cccc3[nH]2)CCCN1,-26% (inactive)
5,Cc1ccc(C2C(C#N)=C(N)Oc3cc(N)ccc32)cc1 (configuration not stated),-0.754% (inactive)
6,COc1ccc(C2CNC(=O)C2)cc1OC1CCCC1 (configuration not stated),-1.09% (inactive)
7,COc1ccccc1C1C(C#N)=C(N)Oc2cc(N)ccc21 (configuration not stated),-4.28% (inactive)
8,COc1ccc(C2C(C#N)=C(N)Oc3cc(N)ccc32)cc1 (configuration not stated),-1.79% (inactive)
9,CCC(C)(C)C(=O)O[C@H]1C[C@@H](C)C=C2C=C[C@H](C)[C@H](CC[C@@H]3C[C@@H](O)CC(=O)O3)[C@H]21,-7.51% (inactive)
10,N#CC1=C(N)Oc2cc(N)ccc2C1c1ccc(Cl)cc1 (configuration not stated),0.262% (inactive)
11,CN1c2ccc(-c3ccc(C#N)cc3)cc2[C@H]2[C@H](CCN2S(=O)(=O)c2ccc(F)cc2)[C@H]1CO,-15.2% (inactive)
12,O=C(Nc1c(Cl)cncc1Cl)c1ccc(OC(F)F)c(OCC2CC2)c1,7.47% (inactive)

# Same assay, conditions: A673 viability, CellTiter-Glo ATP luminescence, 72 h; at 50 µM (top of the series)
row,Structure (SMILES),"activity change, negative = cytotoxicity"
1,O=P1(NCCCl)OCCCN1CCCl (configuration not stated),0.494% (inactive)

# — PubChem BioAssay AID743478 (Broad Institute, 2014)
